From patent US10351914B2, “Biomarkers for Pin1-associated disorders” (Beth Israel Deaconess Medical Center, Inc., priority 2014, dated 2019)

Experiments:
[1] = system: Pin1 acetylation; assay: Pin1 acetylation in cells (Co-IP with anti-Flag antibody, immunoblotting with anti-acetyl lysine antibody); format: cell-based
Source text: FIG. 1 depicts HTS results for glucose starvation induced Pin1 deacetylation in cells 100. Different stress tests, such as heat shock, ultraviolet radiation, and glucose starvation (Glu^−), may produce an extracellular stimulus that could transform one or more cellular responses related to cell growth, differentiation, activation of transcript factors, glucose metabolism, control of proteins synthesis, and regulation of cell cycle. Among these stresses testes, glucose starvation (Glu^−), may reduce Pin1 acetylation without affecting its protein expression (FIG. 1 A). […] Protein acetylation may be catalytically modulated by a particular pair of histone acetyl transferase (HAT) and histone deacetylase (HDAC) (Yang and Seto, 2007). To identify the HAT and HDAC that modulates Pin1 acetylation, Flag-tagged Pin1 was expressed with several HATs including p300, CBP or GCN5 in cells, followed by co-immunoprecipitation (Co-IP) with anti-Flag antibody and immunoblotting with anti-acetyl lysine antibody. […] Moreover, Pin1 Co-IPed with p300, supporting that p300 is a HAT for Pin1. For the corresponding HDAC, various HDAC inhibitors targeting different HDAC categories were used, including Trichostatin A (TSA) and MS-275 for class I and II HDACs as well as Nicotinamide (NAM) and Splitomicin (Splito) for class III HDACs.

[2] = system: Pin1 and SIRT1 interaction; assay: Pin1 and SIRT1 interaction by Co-IP and co-immunostaining; format: cell-based; conditions: Co-IP (FIG. 1 K) and co-immunostaining (FIG. 1 L)
Source text: Out of the seven Sirtuin family members, SIRT1, 2, 6, and 7 associated with Pin1 as shown by Co-IP and GST pull-down (FIG. 1 F). However, only SIRT1 reduced Pin1 acetylation (FIG. 1 G). Furthermore, overexpression of wild-type (WT), but not its catalytic dead (H363Y) mutant, induced Pin1 deacetylation in cells (FIG. 1 H). […] In addition, since other studies have shown that glucose starvation activates SIRT1 activity, an investigation was made to know whether glucose starvation-induced Pin1 deacetylation is mediated by SIRT1.

[3] = HDAC inhibitors in cells, FIG. 1 E

O=CC[C@@H](O)[C@H](O)[C@H](O)CO [2-DG, 2-deoxyglucose] was tested, and the “effect on Pin1 acetylation” value ([1]; mimicking glucose starvation, FIG. 1 B) was “reduction in Pin1 acetylation in a time- or dose-dependent manner” and the “Pin1 binding with SIRT1” value [2] was “increased binding with SIRT1”.
For CCCCCCCCCCCCCCCc1cccc(O)c1C(=O)O [Anacardic acid], the “effect on p300-increased Pin1 acetylation (Acetyl-Pin1)” value ([1]; cells overexpressing p300 with Flag-Pin1, FIG. 1 D) was “reversed”.
With NC(=O)c1cccnc1 [NAM, Nicotinamide] the “effect on Pin1 acetylation” value [1, 3] was “increased Pin1 acetylation”.
For O=C1CCc2c(ccc3ccccc23)O1 [Splito, Splitomicin], the “effect on Pin1 acetylation” value [1, 3] was “increased Pin1 acetylation”.
